The results in this text go back to patent publication US20210198259A1, “HETEROCYCLIC DERIVATIVES AND USE THEREOF” (C&C RESEARCH LABORATORIES, priority 2018, published 2021).

Each structure is given as a SMILES string.

Data set [1] can be described thus: Test for pharmacokinetics in ICR mice (oral). It is filed as in vivo. To be noted: 50 mg/kg, ICR mouse, 5 mg/mL solution at 10 mL/kg, plasma. On the procedure:
As the administration solution for mice of the compounds prepared in the above
Examples, the compound of Example 55 of International Publication No. WO 2010/030785 and the compound of Example 4 of International Publication No. WO 2013/048214, 20% hydroxypropyl-β-cyclodextrin solution (99.75%) and 2N HCl (0.25%) were added sequentially to make 5 mg/mL. Provided that in the case of the compound of Example 10, 99.5% of 20% hydroxypropyl-β-cyclodextrin solution and 0.5% of 2N HCl […] were added.
The weight of each ICR mouse was properly 20-30 g. Dosage of the compound of the present invention was 10 mL/kg, and administered orally using Zonde. Blood collection was performed at 0.5, 1, 2, 4, 7 and 24 hours by orbital venous blood collection using a capillary tube coated with an anticoagulant, and then plasma was isolated using a centrifuge and kept in a freezer.
Plasma collected from animals and standard concentration material were pre-treated using solid-phase extraction, and concentration of the compound of the invention was determined using a liquid chromatography mass spectrometer (Agilent HPLC, API-4000 Qtrap). According to the resulting concentration value, the pharmacokinetics parameter was found using WinNonlin (Version 7.0) and half-life (t1/2), maximum blood concentration (Cmax) and area under the curve (AUCall) are represented in Table 2.

Data set [2] deals with T1, human histamine 4 receptor (hH4R) (Homo sapiens, UniProt Q9H3N8).
T1 construct: purchased Multispan
T1 sequence (Q9H3N8 whole entry): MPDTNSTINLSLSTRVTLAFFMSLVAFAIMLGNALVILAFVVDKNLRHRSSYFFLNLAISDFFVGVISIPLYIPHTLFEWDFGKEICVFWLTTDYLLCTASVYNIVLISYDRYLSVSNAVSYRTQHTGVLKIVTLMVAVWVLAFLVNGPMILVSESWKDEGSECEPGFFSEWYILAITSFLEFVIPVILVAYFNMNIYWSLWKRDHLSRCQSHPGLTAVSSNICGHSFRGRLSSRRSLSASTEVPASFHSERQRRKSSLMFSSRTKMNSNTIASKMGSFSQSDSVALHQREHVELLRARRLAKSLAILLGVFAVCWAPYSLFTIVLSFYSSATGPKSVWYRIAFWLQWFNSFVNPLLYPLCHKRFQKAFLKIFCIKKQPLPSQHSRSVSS
Description: Binding affinity of human histamine 4 receptor (hH4R), [3H] histamine displacement. To be noted: [3H] labeled histamine, hH4R-overexpressed cell membrane. The protocol:
The compounds prepared in the above Examples, the compound of Example 55 of International Publication No. WO 2010/030785 and the compound of Example 4 of International Publication No. WO 2013/048214 were diluted by 1,000 fold (v/w) with DMSO, and then 1 mL of the diluted compound solution was mixed with 99 mL of the analysis buffer solution (50 mM tris-HCl pH 7.4, 5 mM EDTA) to obtain concentration of 1 μM. […] of the prepared compound solution was transferred to each well of a 96-well plate, and then 20 mL of 100 μM histamine diluted with analysis buffer solution and 1% DMSO were transferred to each well to calculate non-specific binding and total binding degree. 15 μg of human histamine 4 receptor-overexpressed cell membrane (Multispan) was diluted into […] of analysis buffer solution and that was transferred to each well. [^3H] labeled histamine (PerkinElmer) was diluted into 10 nM concentration, 20 mL was allocated in each well, and then it was kept in a 27° C. incubator for 30 minutes. After the reaction, 100 mL of the mixture was transferred to a glass fiber plate in which 0.5% polyethylene amine was pre-soaked, and then non-binding [^3H] labeled histamine was removed in vacuum. After 6 times washing with 200 mL of washing buffer solution (50 mM tris-HCl, pH 7.4), the plate was dried in a 37° C. oven for 18 hours. […] of betaScint cocktail solution was added to each well, and after 10 minutes CPM (count per minute) value of [^3H] labeled histamine was measured by the use of Micro beta2™. The binding affinity (% inhibition) of the human histamine 4 receptor for the compounds of the present invention was analyzed by an Excel program, and the results of analysis are represented in Table 1.

Another data set concerns ICR mice. Description: Histamine-induced itching model in ICR mice. It counts as in vivo, mouse. To be noted: 50 mg/kg oral, scratches counted for 20 minutes. On the procedure: Female, ICR mice (8 weeks old) were purchased from OrientBio Co., Ltd. The animals were housed under conditions of controlled temperature (23±3° C.), humidity (50±5%) and lighting with food and water available ad libitum. Water and food were stopped 1 hour before the experiment.
For easy intradermal injection of pruritogen (histamine, dissolved in saline injection solution to make the concentration of 300 nmol per 40 μL) the hair was clipped using clippers (8000AD, THRIVE) over the rostral part of the back 24 hours before the experiment under inhalation anesthesia with isoflurane. Mice (n=10 per group) were divided into 5 groups (normal group, control group and 3 experimental groups). […] At the end of the filming, the number of scratches of the test animals was counted during 20 minutes after histamine administration using the recorded video. The number of scratches was counted a series of actions from scratching with the rear foot of the animal to the time of taking the rear foot to the mouth as one time (J. Allergy Clin. Immunol. 2007, 19(1), 176-183). All data were analyzed by using Excel and Prism, and the number of scratching of each group is expressed as the mean±S.E.M. The inhibitory effect of compounds is shown as a percentage of the maximal response to histamine (100% control group). Statistical analysis was analyzed using one-way ANOVA with Dunnett test. […]

On to `CN1CCN(C2=Nc3ccc(Br)cc3N3CC(=O)N=C23)CC1` [Example 12, 8-bromo-4-(4-methylpiperazin-1-yl)imidazo[1,2-a]quinoxalin-2(1H)-one], for which, in data set [1], the AUC (usually the area under the concentration-time curve, a measure of exposure) is 1390 ng·h/mL; the concentration peaked (Cmax) at 570 ng/mL; the half-life – broadly, the time in which the quantity being followed falls by half – was 1.73 h. Further, the inhibition (in general, the drop in the measured response relative to a control, in per cent) at 1 µM in data set [2] came out at 101%.

Take `CNC1CN(C2=Nc3ccc(Br)cc3N3CC(=O)N=C23)C1` [Example 13, 8-bromo-4-(3-(methylamino)azetidin-1-yl)imidazo[1,2-a]quinoxalin-2(1H)-one]: in data set [1], the AUC stood at 30500 ng·h/mL and the Cmax (as a rule, the highest concentration seen after dosing) is 2500 ng/mL. In the data set on ICR mice (histamine given 30 minutes after dosing), the “Inhibitory rate (%) After 30 minutes” value is 131%. In addition, in the data set with ICR mice (histamine given 7 hours after dosing), the “Inhibitory rate (%) After 7 hours” value turned out to be 99.0%. In data set [2], the “Human histamine 4 receptor (hH4R) binding affinity (% inhibition at 1 μM)” value turned out to be 95.8%.
